Values of other authors, collected in patent US10194661B2, “Methods of making dazomet compositions” (priority 2013, dated 2019).

What was measured:
[1] = system: bees such as honeybees; settings: application to wood, which prevents exposure to bees

CN=C=S [MITC, methyl isothiocyanate]
share of dazomet decomposition products (major product) (dazomet exposed to wood or moist soils): approximately 98%

CN1CSC(=S)N(C)C1 [dazomet, Tetrahydro-3,5-dimethyl-2H-1,3,5-thiadiazine-2-thione]
toxicity to bees [1]: relatively non-toxic and harmless | theoretical maximum decomposition rate / stoichiometric conversion rate to MITC (in wood): approximately 45%
